Data: PMC12813973, “Consequences of Peptide Macrocyclization Revealed by Virus-Inspired β‑Hairpin Mimetics” (ACS Chemical Biology, 2025)
Where two headings read alike, the source gives them in different places. *1 amine or outer side, *2 acyl side, *3 side chain or, on linkers, in order; H or OH if unused. Where a SMILES comes first, the peptide text is derived from it. Bridges are numbered along the chain shown (N, C = ends). [ ]: non-standard residue; d: D form. oXylylene = c1ccc(C[*:2])c(C[*:1])c1; βAla = NCCC(=O)O

Tests used:
STAT1 [1] = target: T1, STAT1 (Homo sapiens, UniProt P42224); assay: Isothermal titration calorimetry (ITC) of peptide binding to STAT1
T1 construct: full-length STAT1 (Uniprot #P42224-1) was expressed in E. coli; His tag (pEXP-NHis vector) (N); made in house; host or cells: E. coli T7 Express
T1 sequence (P42224 1-750): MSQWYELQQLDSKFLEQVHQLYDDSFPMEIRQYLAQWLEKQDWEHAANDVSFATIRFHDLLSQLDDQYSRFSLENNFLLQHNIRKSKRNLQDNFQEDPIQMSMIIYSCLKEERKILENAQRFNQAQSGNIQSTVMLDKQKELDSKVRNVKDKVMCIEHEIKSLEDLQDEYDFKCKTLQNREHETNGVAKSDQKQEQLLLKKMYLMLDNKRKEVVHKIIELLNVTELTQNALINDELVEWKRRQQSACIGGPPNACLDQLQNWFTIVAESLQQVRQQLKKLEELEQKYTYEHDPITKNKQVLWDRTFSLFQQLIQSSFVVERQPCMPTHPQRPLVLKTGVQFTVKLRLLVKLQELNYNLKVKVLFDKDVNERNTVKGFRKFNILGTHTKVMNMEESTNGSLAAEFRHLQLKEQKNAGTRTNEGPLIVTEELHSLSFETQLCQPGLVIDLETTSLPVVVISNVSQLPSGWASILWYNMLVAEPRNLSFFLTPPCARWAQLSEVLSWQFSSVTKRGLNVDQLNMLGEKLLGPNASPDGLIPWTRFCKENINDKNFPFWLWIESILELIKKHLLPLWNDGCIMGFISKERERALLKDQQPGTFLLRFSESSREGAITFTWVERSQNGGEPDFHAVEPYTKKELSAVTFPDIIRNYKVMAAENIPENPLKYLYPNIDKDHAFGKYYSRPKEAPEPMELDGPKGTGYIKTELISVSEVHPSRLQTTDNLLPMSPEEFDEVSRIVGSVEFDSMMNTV
Protocol: To determine affinities and thermodynamic profiles of binding, we performed isothermal titration calorimetry (ITC) experiments for peptides 1, 2, 3, 4, 7, and 8 (Figures A,B and S1,S2, Table S1). […] The experiments were repeated in two different buffer systems, TBST (50 mM Tris pH 8.0, 300 mM NaCl, 0.01% Tween-20) and PBST ([…], 150 mM NaCl, 0.01% Tween-20), to account for possible buffer protonation enthalpy artifacts. […]
Isothermal titration calorimetry (ITC)
ITC experiments were performed using a PEAQ ITC instrument (Malvern Panalytical) in either TBST (50 mM Tris pH 8.0, 300 mM NaCl, 0.5 mM TCEP, 0.01% Tween -20) or PBST (10 mM sodium phosphate pH 7.4, 150 mM NaCl, 0.01% Tween -20) as reaction buffers. STAT1 protein was buffer -exchanged into reaction buffer supplemented with 2% DMSO on a NAP -5 deslating column (Cytiv a #17085301) and its concentration was adjusted to 10 or 20 μM.
Peptides were diluted in reaction buffer from DMSO stocks to a matching 2% DMSO concentration. Peptide concentrations were adjusted to approximately 100-200 μM. ITC experiments were performed with STAT1 in the cell and peptides in the syringe at 25°C, with 750 RPM stirring, DP = 4 μcal/sec. 18 injections of 2 μl were performed over a 50 min titration.
Thermogram integra tion and isotherm fitting were performed using the PEAQ ITC analysis software (Malvern Panalytical ). Isotherms were fitted using a 1:1 binding model. Due to challenges in determining peptide concentrations with high accuracy , protein concentrations and stoichiometry (N=1.0) were kept constant during isotherm fitting, whereas peptide concentrations were allowed to vary. Fixing a single reactant concentration during fitting is acceptable given the sufficiently high C -values and isotherm curvature observed in the […]
Offset subtraction was implemented to remove injection heats.

STAT1 [2] = target: T1, STAT1; assay: Grating-coupled interferometry (GCI) waveRAPID kinetics, immobilised full-length STAT1; type: binding; settings: for Kd: 20 mM HEPES pH 7.5, 300 mM NaCl, 0.01% Tween-20, 1:1 kinetic model, average of 2–4 technical replicates ± SD, SD; for kon at 0.5 µM: analyte 0.5 µM, read-out: ka
Source text: Understanding the molecular determinants of kinetic rate constants of binding (k a, k d) can aid the design of pharmacological probes with longer target engagement, which is beneficial for drug efficacy and decreased toxicity. , We characterized the binding kinetics of 018-derived macrocycles by using grating-coupled interferometry (GCI). We used waveRAPID, a regeneration-free kinetic binding assay that applies sequential analyte pulses of increasing duration onto a GCI biosensor surface with an immobilized target (Figures A, and S3,S4, Table S2).
(§1) Grating coupled interferometry (GCI)
(§2) GCI experiments were performed on a Creoptix WaveDELTA instrument (Malvern Panalytical). Full-length STAT1 or STAT3 were immobilised on a 4PCH chip (Malvern Panalytical #4PCH-03) to a density 2000-8000 pg/mm2 using EDC/NHS activation followed by amine coupling. Briefly, proteins (500 nM) were applied onto an activated chip in 10 mM MES pH 6.5, 20 mM NaCl, after which the chip surface was passivated with 1M ethanolamine, pH 8.0.
(§3) The kinetic measurements were perfor med using 20 mM HEPES pH 7.5, 300 mM NaCl, 0.01% Tween-20, 0.0005% DMSO as running buffer. Peptides were tested at 0.5 or 10 μM concentration using the waveRAPID kinetics experiment with the tight binder or intermediate binder mode, respectively.[4] Sensorgrams were fitted in the waveControl software (Malven Panalytical) using the 1:1 kinetic model. […]

STAT1 [3] = target: T1, STAT1; assay: Fluorescence polarization competition assay with fluorescein-labelled pIFNGR1 docking site peptide probe; type: binding; settings: 10 nM fluorescein pIFNGR1 probe, STAT1 1.5 μM, 20 mM Tris pH 8.0, 300 mM NaCl, 0.1% Tween-20, 0.5 mM TCEP, 2.5% DMSO, room temperature; four parameter logistic fit; read-out: IC50 (FP competition, pIFNGR1 probe displacement)
STAT3 = target: T2, STAT3 (Homo sapiens, UniProt P40763); assay: biochemical; type: binding
T2 construct: STAT3: the gene encoding full-length STAT3 was codon optimised for expression in; MBP (pEXP-MBP vector) (cleaved yes); His tag (IMAC capture, removed with the fusion by TEV and reverse IMAC) (cleaved yes); made in house; host or cells: E. coli T7 Express
T2 sequence (P40763 whole entry, species assumed, the tested form may be a part): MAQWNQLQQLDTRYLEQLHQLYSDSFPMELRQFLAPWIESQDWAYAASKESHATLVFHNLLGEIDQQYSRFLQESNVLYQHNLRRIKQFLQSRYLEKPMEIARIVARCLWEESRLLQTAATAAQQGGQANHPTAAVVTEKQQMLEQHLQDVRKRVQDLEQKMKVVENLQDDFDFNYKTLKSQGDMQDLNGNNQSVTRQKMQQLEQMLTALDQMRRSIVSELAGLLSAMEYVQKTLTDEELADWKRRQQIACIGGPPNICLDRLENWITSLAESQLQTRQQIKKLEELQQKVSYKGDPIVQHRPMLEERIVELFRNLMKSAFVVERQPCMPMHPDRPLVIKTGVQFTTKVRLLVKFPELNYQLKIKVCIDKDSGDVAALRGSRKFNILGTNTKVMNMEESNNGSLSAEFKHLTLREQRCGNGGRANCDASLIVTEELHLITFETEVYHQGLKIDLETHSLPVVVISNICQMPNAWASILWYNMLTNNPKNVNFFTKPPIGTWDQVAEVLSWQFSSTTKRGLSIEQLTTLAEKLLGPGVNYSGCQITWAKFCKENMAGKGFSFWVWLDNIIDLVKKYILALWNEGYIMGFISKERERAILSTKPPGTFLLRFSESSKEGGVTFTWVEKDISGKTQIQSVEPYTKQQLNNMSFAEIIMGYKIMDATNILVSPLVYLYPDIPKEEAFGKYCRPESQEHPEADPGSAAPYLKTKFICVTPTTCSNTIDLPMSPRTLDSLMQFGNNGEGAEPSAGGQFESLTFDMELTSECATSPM
Protocol: In such PPIs, the bulk of the binding energy contribution typically stems from backbone interactions, whereas binding specificity is fine-tuned by side-chain contacts. […] We evaluated the binding kinetics of peptides to full-length STAT3 using GCI.
as §1, §2, §3
GCI sensorgrams depicting RAPID kinetics measurements and fitted kinetic models for peptide binding to full-length STAT3 immobilised on a polycarboxylate hydrogel chip (4PCH). Peptides were applied at 0.5 or 10 μM concentration using the medium or tight binders pulse sequence. The peptides that show negligible Rmax values at 10 μM analyte concentration were classified as non-binding.
(1 picture or pasted object on this page, not shown here)

[4] = PBST pH 7.4 (NaPi, 150 mM NaCl, 0.01% Tween-20), average of 2–3 technical replicates, read-out: KD (ITC, summary Fig 2B)
[5] = TBST pH 8.0, average of 2–3 technical replicates, read-out: KD (ITC, summary Fig 2B)
[6] = replicate 1 (first listed run, Table S2)
[7] = replicate 2 (second listed run, Table S2)
[8] = replicate 3 (third listed run, Table S2)

| Compound | Kd (STAT1 [1]; [4]) [nM] | Kd (STAT1 [1]; [5]) [nM] | Kd (STAT1 [2]) [nM] | kon at 0.5 µM (STAT1 [2]; [6]) [M⁻¹ s⁻¹] | kon at 0.5 µM (STAT1 [2]; [7]) [M⁻¹ s⁻¹] | kon at 0.5 µM (STAT1 [2]; [8]) [M⁻¹ s⁻¹] | Kd (STAT1 [1]; TBST (50 mM Tris pH 8.0, 300 mM NaCl, 0.01% Tween-20), 25°C, 1:1 model, average of three technical replicates ± SD (text and Fig 2A), SD, read-out: KD (ITC)) [nM] | kon at 0.5 µM (STAT1 [2]; replicate 4 (fourth listed run, Table S2)) [M⁻¹ s⁻¹] | IC50 (STAT1 [3]) [nM] | ka (STAT3) [M⁻¹ s⁻¹] | Kd (STAT3; full-length STAT3 on 4PCH chip, average of technical replicates ± SD (Fig 3E), SD, read-out: STAT3 KD (GCI waveRAPID)) [nM] | kon (STAT3; read-out: ka) [M⁻¹ s⁻¹] |
| --- | --- | --- | --- | --- | --- | --- | --- | --- | --- | --- | --- | --- |
| CSCC[C@@H]1NC(=O)CCNC(=O)CCNC(=O)[C@H]([C@@H](C)O)NC(=O)[C@H](Cc2ccc(O)cc2)NC(=O)[C@H]([C@@H](C)O)NC(=O)[C@H](CCCCN)NC(=O)[C@H](CO)NC(=O)[C@@H]2CSCc3ccccc3CSC[C@H](NC(=O)[C@H](Cc3ccccc3)NC(=O)[C@H](C(C)C)NC(=O)[C@H](CO)NC(=O)[C@H](Cc3c[nH]c4ccccc34)NC1=O)C(=O)N[C@@H](Cc1c[nH]cn1)C(=O)NCC(=O)N[C@@H](Cc1c[nH]cn1)C(=O)N[C@@H](CC(=O)O)C(=O)NCC(=O)N[C@@H](CO)C(=O)N[C@@H](CC(N)=O)C(=O)N[C@@H](CCCCN)C(=O)N2 [Peptide 8] (cyclo(CHGHDGSNKCSKTYT[βAla][βAla]MWSVF); linker 1-10 via oXylylene) | 247 | 436 | 75.4 ± 0.8 | 87000 | 80000 |  |  |  |  |  |  |  |
| CC[C@H](C)[C@@H]1NC(=O)[C@@H](NC(=O)[C@@H](NC(=O)[C@H](CO)NC(=O)[C@H](Cc2c[nH]c3ccccc23)NC(=O)[C@H](CCSC)NC(C)=O)C(C)C)CSCc2ccccc2CSC[C@@H](C(=O)N[C@@H](CCCCN)C(=O)N[C@H](C(=O)N[C@@H](Cc2ccc(O)cc2)C(=O)N[C@H](C(N)=O)[C@@H](C)O)[C@@H](C)O)NC(=O)CNC(=O)[C@H](CCCCN)NC(=O)[C@H](CC(N)=O)NC(=O)[C@H](CO)NC(=O)CNC(=O)[C@H](CC(=O)O)NC(=O)[C@H](Cc2c[nH]cn2)NC(=O)CNC(=O)[C@H](Cc2c[nH]cn2)NC1=O [Peptide 9] (Ac-MWSVCIHGHDGSNKGCKTYT-NH2; linker 5-16 via oXylylene) |  |  | 1.5 ± 0.1 | 587000 | 570000 | 540000 |  |  |  |  |  |  |
| CC[C@H](C)[C@@H]1NC(=O)[C@H](Cc2ccccc2)NC(=O)[C@H](C(C)C)NC(=O)[C@H](CO)NC(=O)[C@H](Cc2c[nH]c3ccccc23)NC(=O)[C@H](CCSC)NC(=O)CCNC(=O)CCNC(=O)[C@H]([C@@H](C)O)NC(=O)[C@H](Cc2ccc(O)cc2)NC(=O)[C@H]([C@@H](C)O)NC(=O)[C@H](CCCCN)NC(=O)[C@H](CO)NC(=O)CNC(=O)[C@H](CCCCN)NC(=O)[C@H](CC(N)=O)NC(=O)[C@H](CO)NC(=O)CNC(=O)[C@H](CC(=O)O)NC(=O)[C@H](Cc2c[nH]cn2)NC(=O)CNC(=O)[C@H](Cc2c[nH]cn2)NC1=O [Peptide 2] | 122 |  | 8.9 ± 1.9 | 216000 | 213000 | 321000 | 330 ± 20 |  |  |  |  |  |
| CSCC[C@@H]1NC(=O)CCNC(=O)CCNC(=O)[C@H]([C@@H](C)O)NC(=O)[C@H](Cc2ccc(O)cc2)NC(=O)[C@H]([C@@H](C)O)NC(=O)[C@H](CCCCN)NC(=O)[C@H](CO)NC(=O)[C@H](CS)NC(=O)[C@H](CCCCN)NC(=O)[C@H](CC(N)=O)NC(=O)[C@H](CO)NC(=O)CNC(=O)[C@H](CC(=O)O)NC(=O)[C@H](Cc2c[nH]cn2)NC(=O)CNC(=O)[C@H](Cc2c[nH]cn2)NC(=O)[C@H](CS)NC(=O)[C@H](Cc2ccccc2)NC(=O)[C@H](C(C)C)NC(=O)[C@H](CO)NC(=O)[C@H](Cc2c[nH]c3ccccc23)NC1=O [Peptide 7] (cyclo(CHGHDGSNKCSKTYT[βAla][βAla]MWSVF)) | 114 | 1930 | 96.9 ± 4 | 129000 | 131000 | 137000 |  |  |  |  |  |  |
| CC[C@H](C)[C@@H]1NC(=O)[C@@H]2CSCc3ccccc3CSC[C@H](NC(=O)CNC(=O)[C@H](CCCCN)NC(=O)[C@H](CC(N)=O)NC(=O)[C@H](CO)NC(=O)CNC(=O)[C@H](CC(=O)O)NC(=O)[C@H](Cc3c[nH]cn3)NC(=O)CNC(=O)[C@H](Cc3c[nH]cn3)NC1=O)C(=O)N[C@@H](CCCCN)C(=O)N[C@@H]([C@@H](C)O)C(=O)N[C@@H](Cc1ccc(O)cc1)C(=O)N[C@@H]([C@@H](C)O)C(=O)NCCC(=O)NCCC(=O)N[C@@H](CCSC)C(=O)N[C@@H](Cc1c[nH]c3ccccc13)C(=O)N[C@@H](CO)C(=O)N[C@@H](C(C)C)C(=O)N2 [Peptide 4] (cyclo(CIHGHDGSNKGCKTYT[βAla][βAla]MWSV); linker 1-12 via oXylylene) | 14 | 24 |  | 658000 | 594000 | 277000 |  | 865000 | 1100 | 239000 | 248 ± 10.6 | 257000 |
